The source of these data is paper PMC9917099, “The Mycotoxin Patulin Inhibits the Mitochondrial Carnitine/Acylcarnitine Carrier (SLC25A20) by Interaction with Cys136 Implications for Human Health” (International Journal of Molecular Sciences, 2023).

The target in test [1] is T1, CAC in intact rat liver mitochondria (Rattus norvegicus, UniProt P97521).
T1 construct: the native protein extracted from rat liver mitochondria; from tissue; host or cells: rat liver mitochondria (Triton X-100 extract)
T1 sequence (P97521 1-301): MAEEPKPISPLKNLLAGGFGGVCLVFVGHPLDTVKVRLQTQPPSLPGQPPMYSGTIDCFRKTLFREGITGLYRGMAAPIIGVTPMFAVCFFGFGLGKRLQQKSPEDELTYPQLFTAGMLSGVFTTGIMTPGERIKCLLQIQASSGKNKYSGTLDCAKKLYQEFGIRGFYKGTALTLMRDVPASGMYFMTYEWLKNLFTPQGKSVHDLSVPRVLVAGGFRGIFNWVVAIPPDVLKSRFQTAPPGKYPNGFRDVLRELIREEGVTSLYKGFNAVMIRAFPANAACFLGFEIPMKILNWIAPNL
The test is described as follows: Treatment of intact rat liver mitochondria, then solubilization, reconstitution in proteoliposomes and carnitine antiport assay. The format is biochemical. As to the method:
Figure 1 Effect of Patulin on the native carnitine/acylcarnitine carrier (CAC). (A) Dose-response analysis of proteoliposomes reconstituted with the CAC extracted from rat liver mitochondria (0.3 mg of total proteins) and incubated with PAT at the indicated concentrations for 30 min, before measuring the transport activity by adding 0.1 mM [^3H] carnitine for 10 min as described in Materials and Methods. The percentage of residual activity compared to control, without PAT treatment, is reported. The values are the means ± SD from three independent experiments. (B) Rat liver mitochondria (5 mg/100 μL) were incubated or not (control) for 60 min, with Patulin (60 μM) or GSH (5 mM) as indicated. Upon treatment, the unreacted drug was removed by washing the mitochondria in PBS 1X and then 0.3 mg mitochondria were solubilized by 3% TX-100, 10 mM PIPES pH 7.0 and reconstituted in proteoliposomes for transport assay as indicated in (A) and Materials and Methods. Black and white bars indicate without or with the addition of 5 mM dithioerythritol (DTE) 1 min before the transport assay to aliquots of each sample.
The effect of PAT on the CAC at 60 µM concentration was also detected in intact rat liver mitochondria. Upon treatment (60 min), the mitochondria were solubilized in Triton X-100 and 0.3 mg of mitochondrial extract were reconstituted in proteoliposomes for testing the transport activity of CAC (see above). […] Aliquots of intact mitochondria incubated with PAT were treated also with reduced GSH to verify whether this physiological SH-reducing agent was able to reverse the mycotoxin-protein interactions.
The recombinant CAC proteins were reconstituted in proteoliposomes as previously described. Rat liver mitochondria after purification, using the standard procedure of cell disruption and differential centrifugation were solubilized with 3% Triton X-100 in a PIPES buffer (10 mM) at pH 7.0. Herein, the mitochondrial extract (0.3 mg) were reconstituted in the liposomes as above described for the mitochondrial CAC recombinant protein, in the absence of reducing agents. The concentration of intraliposomal carnitine was 15 mM in all samples.
For the transport assay, 550 μL of proteoliposomes were passed through a Sephadex G-75 column in order to remove the external substrate. Six hundred μL of the turbid eluate were collected, divided into samples of 100 μL each, and used for transport measurement by the inhibitor-stop method. Transport was started as homoexchange by adding 0.1 mM [^3H]-carnitine to proteoliposomes containing 15 mM carnitine and, at the indicated time interval, stopped by 1.5 mM NEM (N-ethylmaleimide). The inhibitor was added together with the labelled substrate at time zero in the control samples. After finishing the transport reaction, the external radiolabel substrate was removed by gel filtration chromatography (Sephadex G-75), and the intraliposomal radioactivity was measured by liquid scintillation. Transport was measured at 25 °C. The experimental values were corrected by subtracting the controls. Transport rates were measured in 10 min, i.e., within the initial linear range of the time course.

In test [2] the target is T2, rat CAC mutant C155S (Rattus norvegicus, UniProt P97521, C155S).
T2 construct: made in house; host or cells: E. coli C0214 (pMW7, inclusion bodies)
T2 sequence (P97521 1-301 C155S): T1 sequence (P97521 1-301) with C155S
As to the kind of experiment: Carnitine antiport in proteoliposomes, CAC mutant C155S. The format is biochemical. The method, then:
To shed light on the interaction between PAT and CAC and verify if specific Cys residues were involved, transport experiments on the recombinant rat and human WT CAC and CAC’s rat Cys mutants were performed. As in the case of the native protein, transport activities were measured as [^3H]-carnitine/carnitine antiport in proteoliposomes. […] The PAT inhibition of the WT recombinant protein was only slightly greater compared to the native protein, although compounds and other molecular systems that affect the mycotoxin binding to the native CAC were absent (see above). For identifying the residues involved in the PAT interaction, site-directed Cys mutants were tested for inhibition (Figure 2). […]
Figure 2 Dose-response analysis of the PAT inhibition of the CAC recombinant proteins. […] The data are expressed as a percentage of the controls (no PAT addition) and are means ± SD of three independent experiments. […]
For the transport assay, 550 μL of proteoliposomes were passed through a Sephadex G-75 column in order to remove the external substrate. […] After finishing the transport reaction, the external radiolabel substrate was removed by gel filtration chromatography (Sephadex G-75), and the intraliposomal radioactivity was measured by liquid scintillation. Transport was measured at 25 °C. […] Transport rates were measured in 10 min, i.e., within the initial linear range of the time course.

Each structure is given as a SMILES string. Substitutions are numbered along the chain they refer to.

As usually defined, the inhibition is the relative decrease from the control value, in per cent. What is called IC50 is the midpoint of a concentration-inhibition curve. Lower therefore signals higher potency. Turning to `O=C1C=C2C(=CCOC2O)O1` (stereo not drawn) [PAT, 4-hydroxy-4H-furo [3,2c] pyran-2 [6H] -one], the inhibition at 60 µM in test [1] (60 µM PAT, 60 min, intact rat liver mitochondria, read-out: inhibition of CAC transport activity compared to control) was around 50%. Further, the “recovery of transport activity on addition of GSH after PAT treatment” value in test [1] (60 µM PAT, then 5 mM GSH) is on record as “did not lead to a recovery”. For the same molecule, in test [1] (5 mM DTE added 1 min before transport assay), the “reversal of PAT binding by DTE” value is “No reverse binding”. For the same molecule, the “effect of GSH added to mitochondria before PAT incubation on PAT inhibition” value in test [1] (5 mM GSH before 60 µM PAT) is listed as “prevented”. The IC50 in test [1] (intact rat mitochondria) was 60 µM; in test [2] it was “comparable to the WT”.
